# Experimental data from doi:10.1101/2023.06.29.547052v1 (biorxiv, 2023).
# Target: BSA (Bos taurus, UniProt P02769)
# Assay: biochemical
# BSA, sequence (P02769 25-607): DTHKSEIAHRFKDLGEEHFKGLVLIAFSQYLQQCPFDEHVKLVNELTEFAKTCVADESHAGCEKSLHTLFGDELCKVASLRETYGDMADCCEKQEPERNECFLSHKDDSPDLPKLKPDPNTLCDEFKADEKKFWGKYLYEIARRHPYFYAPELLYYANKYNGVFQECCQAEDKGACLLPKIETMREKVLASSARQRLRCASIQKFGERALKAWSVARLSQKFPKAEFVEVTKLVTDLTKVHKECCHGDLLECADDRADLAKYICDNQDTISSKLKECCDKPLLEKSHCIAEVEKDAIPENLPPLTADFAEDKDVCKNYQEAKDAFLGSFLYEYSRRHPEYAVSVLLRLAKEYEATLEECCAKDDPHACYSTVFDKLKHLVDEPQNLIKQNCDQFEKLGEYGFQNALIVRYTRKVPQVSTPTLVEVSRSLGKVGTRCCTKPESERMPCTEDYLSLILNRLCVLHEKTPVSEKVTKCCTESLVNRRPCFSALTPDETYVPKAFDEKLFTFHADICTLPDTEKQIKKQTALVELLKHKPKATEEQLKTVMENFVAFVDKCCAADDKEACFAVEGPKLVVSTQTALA
compound,measurement,value
C=CC1=C(C)C2=Cc3c(C=C)c(C)c4[n]3[Fe]([Cl])[n]3c(c(C)c(CCC(=O)O)c3=CC3=NC(=C4)C(C)=C3CCC(=O)O)=CC1=N2 [hemin],Kd,1.78 ± 0.02 µM
